The assay addresses Envelope glycoprotein gp160 (Human immunodeficiency virus 1, UniProt Q6QLK5). Description: cell-free HIV fusion peptide-binding blockers – biochemical, uHTS, fluorescence dequenching, […] (AID 1986).

We go through 1 compound from ChEMBL document CHEMBL1201862, “PubChem BioAssay data set” (2004).

Activity calls are given as the source filed them. Rule as the data show it: actives have a measured IC50 and inactives only a lower limit.

Sequence of Envelope glycoprotein gp160 (Q6QLK5 whole entry, the tested form may be a part): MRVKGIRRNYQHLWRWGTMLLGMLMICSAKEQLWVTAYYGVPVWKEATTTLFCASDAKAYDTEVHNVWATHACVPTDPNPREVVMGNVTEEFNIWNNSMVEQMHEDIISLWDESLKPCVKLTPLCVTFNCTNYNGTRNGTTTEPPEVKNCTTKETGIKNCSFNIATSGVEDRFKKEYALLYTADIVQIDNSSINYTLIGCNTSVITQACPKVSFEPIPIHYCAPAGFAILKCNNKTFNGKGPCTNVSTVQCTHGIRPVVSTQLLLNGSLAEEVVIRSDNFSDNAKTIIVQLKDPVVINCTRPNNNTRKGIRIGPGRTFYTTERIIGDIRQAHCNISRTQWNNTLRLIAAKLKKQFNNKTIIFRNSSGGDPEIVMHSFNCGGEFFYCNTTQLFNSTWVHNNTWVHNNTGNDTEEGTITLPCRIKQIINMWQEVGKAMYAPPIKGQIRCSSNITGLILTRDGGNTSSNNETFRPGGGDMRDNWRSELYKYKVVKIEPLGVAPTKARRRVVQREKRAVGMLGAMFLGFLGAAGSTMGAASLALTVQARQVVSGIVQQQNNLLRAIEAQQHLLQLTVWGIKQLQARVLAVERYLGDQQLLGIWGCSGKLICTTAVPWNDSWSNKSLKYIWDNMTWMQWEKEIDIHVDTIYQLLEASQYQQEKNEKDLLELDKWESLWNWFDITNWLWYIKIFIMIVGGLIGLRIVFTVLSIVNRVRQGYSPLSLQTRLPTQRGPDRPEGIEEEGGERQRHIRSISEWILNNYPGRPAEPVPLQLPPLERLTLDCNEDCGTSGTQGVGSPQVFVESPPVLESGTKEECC

In general, IC50 refers to the concentration needed to halve the response being measured. As for `CCOC(=O)c1sc2nc3c(SCCC(=O)O)cc(C(=O)c4cc(OC)ccc4O)cn3c(=O)c2c1C`, the IC50 is 16 µM (active).
